In publication PMC4389443 (Respiratory Research, 2015):

Legend:
[1] = target: T1, Recombinant lysyl oxidase like 2 (Homo sapiens, UniProt Q9Y4K0); experiment: LOXL2 fluorometric enzyme activity assay; assay type: biochemical
T1 construct: purchased R&D systems
T1 sequence (Q9Y4K0 26-774): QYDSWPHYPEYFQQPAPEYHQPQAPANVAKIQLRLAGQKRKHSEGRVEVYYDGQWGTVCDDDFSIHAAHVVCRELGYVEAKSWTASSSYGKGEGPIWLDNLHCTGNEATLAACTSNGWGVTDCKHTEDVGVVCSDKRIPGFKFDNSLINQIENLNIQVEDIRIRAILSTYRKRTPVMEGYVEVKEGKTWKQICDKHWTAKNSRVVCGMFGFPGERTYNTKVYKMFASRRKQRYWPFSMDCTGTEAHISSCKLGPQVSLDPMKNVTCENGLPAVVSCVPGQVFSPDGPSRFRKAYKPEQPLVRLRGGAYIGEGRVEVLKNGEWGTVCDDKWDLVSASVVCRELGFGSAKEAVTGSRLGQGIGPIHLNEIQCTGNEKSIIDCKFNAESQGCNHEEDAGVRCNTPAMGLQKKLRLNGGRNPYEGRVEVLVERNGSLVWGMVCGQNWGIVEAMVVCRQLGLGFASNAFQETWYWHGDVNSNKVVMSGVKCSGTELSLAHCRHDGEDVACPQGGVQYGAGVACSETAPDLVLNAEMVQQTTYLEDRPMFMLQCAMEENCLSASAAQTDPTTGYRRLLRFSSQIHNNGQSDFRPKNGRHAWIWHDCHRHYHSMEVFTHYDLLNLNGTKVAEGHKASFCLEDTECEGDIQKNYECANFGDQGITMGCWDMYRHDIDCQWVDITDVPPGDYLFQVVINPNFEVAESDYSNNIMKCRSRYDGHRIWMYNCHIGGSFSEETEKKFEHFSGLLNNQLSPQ
Procedure: rhLOXL2 (lysyl oxidase like 2) was purchased from R&D systems and assay was performed in 1.2 M urea, 50 mM sodium borate buffer, pH 8.2. The substrate used was 10 mM putrescine and 100 μM of β-aminopropionitrile (βAPN, Sigma-Aldrich) was added to the low controls.

[2] = target: T2, VAP-1/SSAO in gonadal fat tissue homogenate (Canis lupus familiaris, UniProt A0A8I3MYY3); experiment: SSAO activity, gonadal fat tissue homogenate; assay type: biochemical; conditions: dog
T2 sequence (A0A8I3MYY3 1-763): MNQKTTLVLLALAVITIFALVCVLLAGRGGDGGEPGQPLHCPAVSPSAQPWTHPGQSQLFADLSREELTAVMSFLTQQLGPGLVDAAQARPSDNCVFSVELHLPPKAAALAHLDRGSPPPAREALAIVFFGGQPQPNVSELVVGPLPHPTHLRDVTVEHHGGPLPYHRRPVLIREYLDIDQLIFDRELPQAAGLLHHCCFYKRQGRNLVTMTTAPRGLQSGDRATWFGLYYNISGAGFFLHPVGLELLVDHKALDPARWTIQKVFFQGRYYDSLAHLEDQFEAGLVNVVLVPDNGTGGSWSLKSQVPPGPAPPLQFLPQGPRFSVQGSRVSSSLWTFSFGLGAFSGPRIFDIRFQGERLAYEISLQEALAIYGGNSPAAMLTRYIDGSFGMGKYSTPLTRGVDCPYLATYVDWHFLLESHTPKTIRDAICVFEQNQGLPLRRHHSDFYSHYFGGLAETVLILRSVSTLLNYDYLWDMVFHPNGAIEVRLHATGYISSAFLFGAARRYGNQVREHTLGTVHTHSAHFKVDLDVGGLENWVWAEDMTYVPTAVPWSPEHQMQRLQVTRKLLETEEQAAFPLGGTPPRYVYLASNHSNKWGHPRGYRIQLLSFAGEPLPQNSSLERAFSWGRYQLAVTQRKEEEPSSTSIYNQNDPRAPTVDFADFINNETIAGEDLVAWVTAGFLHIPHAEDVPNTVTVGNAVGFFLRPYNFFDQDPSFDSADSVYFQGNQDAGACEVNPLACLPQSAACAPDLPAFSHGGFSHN

[3] = Pharmacokinetics in BALB/c mice; assay type: in vivo; conditions: mouse; for Cmax: read-out: Apparent concentration at curve maximum Cmax
Procedure: (§1) Studies were performed by ICP Firefly, Pharmalegacy and Sundia with local ethics approval. […] Plasma was analyzed for PXS-4728A by high-performance liquid chromatography-mass spectrometry/mass spectrometry. Basic pharmacokinetic parameters were estimated using PK Solutions software (Summit Research Services).

[4] = system: over 100 different macromolecular targets; experiment: Off-target activity, Ricerca lead seeker selectivity panel; conditions: other amine oxidases or over 100 different macromolecular targets
[5] = system: HepG2 cells; experiment: Cell toxicity in HepG2 cells; assay type: cell-based; conditions: highest concentration tested 100 μM
[6] = Pharmacokinetics in Wistar rats; assay type: in vivo; conditions: rat; for Cmax: read-out: Apparent concentration at curve maximum Cmax
Procedure: as §1

[7] = target: T3, Recombinant retina specific amine oxidase (AOC2) (Homo sapiens, UniProt O75106); experiment: AOC2 enzyme activity assay; assay type: biochemical
T3 sequence (O75106 1-756): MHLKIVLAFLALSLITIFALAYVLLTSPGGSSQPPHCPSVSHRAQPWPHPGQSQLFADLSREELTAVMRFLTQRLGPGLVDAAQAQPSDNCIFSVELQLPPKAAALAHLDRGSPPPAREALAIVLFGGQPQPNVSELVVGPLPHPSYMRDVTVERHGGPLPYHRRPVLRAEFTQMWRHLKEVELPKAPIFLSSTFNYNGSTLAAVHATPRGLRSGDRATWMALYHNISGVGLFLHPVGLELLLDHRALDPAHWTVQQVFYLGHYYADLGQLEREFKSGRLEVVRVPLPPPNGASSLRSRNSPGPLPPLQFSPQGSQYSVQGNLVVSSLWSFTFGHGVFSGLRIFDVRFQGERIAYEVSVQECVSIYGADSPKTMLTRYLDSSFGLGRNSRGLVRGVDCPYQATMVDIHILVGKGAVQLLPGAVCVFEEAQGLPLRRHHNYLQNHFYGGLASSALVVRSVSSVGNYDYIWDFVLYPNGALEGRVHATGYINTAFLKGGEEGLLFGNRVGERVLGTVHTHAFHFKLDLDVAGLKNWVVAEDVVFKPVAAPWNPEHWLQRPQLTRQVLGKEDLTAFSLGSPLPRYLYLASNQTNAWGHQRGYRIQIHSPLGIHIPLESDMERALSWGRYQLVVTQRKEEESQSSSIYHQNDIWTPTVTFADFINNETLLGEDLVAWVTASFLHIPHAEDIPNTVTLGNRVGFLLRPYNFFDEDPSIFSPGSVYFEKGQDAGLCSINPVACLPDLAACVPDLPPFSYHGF

CC(C)(C)NC(=O)c1ccc(OC/C(=C/F)CN)cc1 [PXS-4728A]
IC50 [1]: 10400 nM | IC50 [2]: < 10 nM | bioavailability ([3]; BALB/c, plasma, oral, 10 mg.kg^−1, mouse, oral 10 mg.kg^−1 / i.v. 5 mg.kg^−1): > 90% | Cmax ([3]; BALB/c, plasma, intravenous 5 mg.kg^−1): 1600 ng/mL | half-life ([3]; BALB/c, plasma, intravenous 5 mg.kg^−1, read-out: Apparent half-life, t1/2 (converted)): 36 min | clearance ([3]; BALB/c, plasma, intravenous 5 mg.kg^−1, read-out: Clearance CL): 80 mL/min/kg | Cmax ([3]; BALB/c, plasma, oral 10 mg.kg^−1): 1380 ng/mL | Tmax ([3]; BALB/c, plasma, oral 10 mg.kg^−1, read-out: Time of maximal concentration Tmax): 15 min | Clearance CL ([3]; oral 10 mg.kg^−1): 98 mL·kg/min | Bioavailability (%) ([3]; oral 10 mg.kg^−1 / i.v. 5 mg.kg^−1): 92% | Off-target activity [4]: does not have any significant off-target activity | Cell toxicity [5]: does not induce cell toxicity | Cmax ([6]; Wistar, plasma, intravenous 3 mg.kg^−1): 4210 ng/mL | clearance ([6]; Wistar, plasma, intravenous 3 mg.kg^−1, read-out: Clearance CL): 23 mL/min/kg | Cmax ([6]; Wistar, plasma, oral 6 mg.kg^−1): 720 ng/mL | Tmax ([6]; Wistar, plasma, oral 6 mg.kg^−1, read-out: Time of maximal concentration Tmax): 49.8 min | half-life ([6]; Wistar, plasma, iv, 3 mg/kg, intravenous 3 mg.kg^−1, read-out: Apparent half-life, t1/2 (converted)): ~60 min | bioavailability ([6]; Wistar, plasma, oral, 6 mg.kg^−1, rat, oral 6 mg.kg^−1 / i.v. 3 mg.kg^−1): > 55% | Clearance CL ([6]; oral 6 mg.kg^−1): 45 mL·kg/min | Bioavailability (%) ([6]; oral 6 mg.kg^−1 / i.v. 3 mg.kg^−1): 55% | IC50 [7]: 2760 nM
